Data on 6 compounds can be found in ChEMBL document CHEMBL3779792, “Anti-proliferative evaluation of monoterpene derivatives against leukemia” (Eur J Med Chem, 2016).

The subject of one assay is Jurkat. The experiment in a line: Cytotoxicity against human Jurkat cells after 72 hrs by Cell-Titer Glo assay. The format is functional, cell-based.
Assay [1] can be described thus: Cytotoxicity against human SEM cells after 72 hrs by Cell-Titer Glo assay. It is filed as functional, cell-based.
The subject of a further assay is HEK293. The experiment in a line: Cytotoxicity against HEK293 cells after 72 hrs by Cell-Titer Glo assay. It is filed as cell-based. The conditions noted are these: Homo sapiens, HEK293, 72 h.
The next assay has as its system Raji. The experiment in a line: Cytotoxicity against human Raji cells after 72 hrs by Cell-Titer Glo assay. It is filed as functional, cell-based.
The next assay relates to BJ. The experiment in a line: Cytotoxicity against human BJ cells after 72 hrs by Cell-Titer Glo assay. It is filed as cell-based.
The subject of another assay is HepG2. The experiment in a line: Cytotoxicity against human HepG2 cells after 72 hrs by Cell-Titer Glo assay. The conditions noted are these: HepG2, 72 h. It is filed as functional, cell-based.
The nature of assay [2]: Cytotoxicity against human NALM6 cells after 72 hrs by Cell-Titer Glo assay. It is filed as functional, cell-based. Conditions: NALM-6, 72 h.

For `C=C[C@@](C)(/C=C/c1ccc(O)c(CO)c1)CCC=C(C)C`, the EC50 with Jurkat was over 49 µM; in assay [1], over 36.6 µM; with HEK293, over 36.6 µM; in the assay with Raji it was over 26 µM; in the assay with BJ, over 36.6 µM; in the assay with HepG2, over 52.1 µM. Further, in assay [2], the EC50 came out at 16.4 µM.
For `C=C[C@@](C)(/C=C/c1ccc(O)cc1)CC/C=C/C#N`, the EC50 in the assay on Jurkat was over 49 µM; in assay [1], over 36.6 µM; with HEK293, over 36.6 µM; in the assay on Raji it was over 26 µM; with BJ it was over 36.6 µM; in the assay on HepG2 it was over 52.1 µM. Besides, in assay [2], the EC50 is over 43.5 µM.
For `CCOC(=O)/C(C)=C/c1cc(/C=C/[C@](C)(/C=C/c2ccc(OC)cc2)CCC=C(C)C)ccc1O`, the EC50 in the assay on Jurkat was over 49 µM; in assay [1], over 36.6 µM; in the assay on HEK293, over 36.6 µM; with Raji it was over 26 µM; in the assay with BJ, over 36.6 µM; in the assay on HepG2 it was over 52.1 µM. The compound further registered an EC50 in assay [2] of over 43.5 µM.
On to `C=C[C@@](C)(/C=C/c1ccc(O)c(/C=C/C(N)=O)c1)CCC=C(C)C`, for which the EC50 with Jurkat is over 49 µM; in assay [1], over 36.6 µM; with HEK293, over 36.6 µM; with Raji, over 26 µM; in the assay on BJ, over 36.6 µM; with HepG2, over 52.1 µM. The EC50 in assay [2] is over 43.5 µM.
As for `C=C[C@@](C)(/C=C/c1ccc(O)c(/C=C/C(=O)OCc2ccccc2)c1)CCC=C(C)C`, the EC50 in the assay on Jurkat is over 49 µM; in assay [1], over 36.6 µM; in the assay on HEK293, over 36.6 µM; with Raji, over 26 µM; with BJ, over 36.6 µM; with HepG2, over 52.1 µM. The compound further gave an EC50 in assay [2] of over 43.5 µM.
Take `C=C[C@@](C)(/C=C/c1ccc(O)cc1)CCC(O)C(C)(C)O` (some centres not stated): the EC50 in the assay with Jurkat is over 49 µM; in assay [1], over 36.6 µM; in the assay on HEK293, over 36.6 µM; in the assay with Raji it was over 26 µM; in the assay with BJ, over 36.6 µM; in the assay on HepG2, over 52.1 µM. In addition, the EC50 in assay [2] is over 43.5 µM.
